Measurements: US8440683B2, “Pharmaceutical preparation for treating demyelinating diseases of the nervous system; preparation promoting restoration of the myelin sheath of nerve fibers; and a method for treating demyelinating diseases of the nervous system” (priority 2007, dated 2013)

Key:
[1] = clinical scale; abscesses, hematomas, elevated arterial pressure, allergic reactions etc.; cited from earlier work
[2] = treatment of amyotrophic lateral sclerosis patients; assay type: in vivo
From the text: Another patient had their disordered breathing, which could not be corrected by other preparations, restored.

[3] = test system: connective tissue development; details: damage to a nerve; U.S.S.R. Patent No. 1,713,151; cited from earlier work
[4] = in water and aqueous alcohol; cited from earlier work
degenerating nerves = assay: myelination of degenerating nerves in rats; assay type: in vivo
From the text: By comparison, myelination of nerve fibers proceeded slowly in control animals that were not treated with stephaglabrin sulfate and was not completed even within 100 to 120 days.

[5] = treatment of syringomyelia patients; assay type: in vivo
Experimental: The preparation was administered to 37 patients suffering from syringomyelia.
Along with the administration of the preparation, all the patients were directed to take massage sessions, physiotherapy exercises, spine ionization by potassium iodide, and vitamins B1 and B12. […] Special attention must be drawn to the fact that the malfunctions are corrected in patients showing early signs of syringobulbia.

[6] = treatment of myelopathy patients with lateral amyotrophic syndrome; assay type: in vivo; details: intramuscular 2.0 ml of 0.25% solution twice a day, two to three weeks
Experimental: Administration of stephaglabrin sulfate intramuscularly in 2.0 ml doses of a 0.25% solution twice a day for two to three weeks in treating myelopathy patients showing elements of a lateral amyotrophyic syndrome.

[7] = treatment of patients with cerebrospinal form of disseminated sclerosis; assay type: in vivo; details: disseminated sclerosis with tetraparesis, cerebello-ataxic syndrome, pelvic disorders
From the text: The preparation was effective in patients suffering from the cerebrospinal form of disseminated sclerosis combined with tetraparesis, cerebello-ataxic syndrome, and pelvic disorders.

[8] = in vivo; cited from earlier work
[9] = test system: true and false cholinesterase; details: cited from earlier work
Schwann cells = assay: stimulation of Schwann cell growth and myelin formation; details: inventors' experiments
[10] = in vivo; cited from earlier work; remark: listed apart in the source
smooth muscles = details: cited from earlier work

In the case of glatiramer acetate [Copaxone-Teva], the “side reactions on clinical use” value [1] is given as “Numerous side reactions”.
In the case of stephaglabrin sulfate, the therapeutic effect ([2]; 14 patients with severe amyotrophic lateral sclerosis) is reported as “positive therapeutic effect”, the disordered breathing ([2]; another patient, not corrected by other preparations) is reported as “restored” and the “patients with strength build-up in the extremities and reduced bulbar disorders” value ([2]; of 14 patients) is reported as 12 patients. The swallowing ([2]; one patient with aphonia and dysphagia, after 10 days of 2 ml twice a day) was “significant improvement in swallowing”, the “activity in relation to connective tissue development, preventing formation of scars” value [3] was “specific inhibiting activity” and the solubility [4] was “well soluble”. The “start of myelination of degenerating nerves” value (degenerating nerves; 0.1 to 1.0 mg/kg, versus untreated animals) was “stimulates an early start of myelination”, the “speed of impulse passage in the nerve” value (degenerating nerves; electrophysiological studies) was “complete recovery” and the “time to lowered levels of sensing disorders” value ([5]; from the start of treatment, 2 ml twice a day plus massage, physiotherapy, vitamins) was “within two to three weeks”. For the same substance, the “patients with a positive effect” value ([5]; of 37 syringomyelia patients) was 28 patients, the “onset of decline of sympathalgic pain intensity” value ([5]; some patients) was 10th to 12th day and the clinical effects observed [6] was “disappearance of fibrillations, reduction in amyotrophy intensity and polykinetics of proprioceptive reflexes, and growth of muscle power in the arms”. For the same substance, the clinical effectiveness [7] was “effective”, the arterial pressure [8] was “lowers arterial pressure” and the “activity of true and false cholinesterase” value [9] was “suppresses the activity”. For the same substance, the “growth of Schwann cells and subsequent myelin formation” value (Schwann cells) was “stimulate the growth of Schwann cells”, the toxicity [10] was “low toxicity” and the “effect on smooth muscles” value (smooth muscles) was “tonic effect”.
